Molecules are shown by their SMILES. Where “and” joins values, the source holds several entries; their conditions need not be identical. Equal entries are not always repeated.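 Values below derive from 48-hour exposures of cells grown in 96-well plates, with endpoints linearly interpolated between the two concentrations bracketing the appropriate inhibition level. GI50: concentration for 50% inhibition of growth. TGI: concentration producing complete growth inhibition.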

Holding throughout (assay): DTP human tumour cell line panel, 48 h
Experiment [1] relates to A498 renal.
The subject of experiment [2] is NCI-H23 lung.
The subject of experiment [3] is SK-MEL-28 melanoma.
For experiment [4], the system named is 786-0 renal.
For experiment [5], the system named is NCI-H226 lung.
The subject of experiment [6] is OVCAR-8 ovarian.
Experiment [7] relates to SK-MEL-5 melanoma.
Experiment [8] relates to HOP-62 NSCLC.
For experiment [9], the system named is SW-620 colon.
The test system of experiment [10] is U251 CNS.

Turning to `C[n+]1c2cc(N)ccc2cc2ccc(N)cc21`, the 50% growth inhibitory concentration (GI50) was 162 nM and 152 nM and 71.9 nM in experiment [1]; 1.27 µM [middle of 4 runs] in experiment [2]; 1.96 µM [middle of 4 runs] in experiment [3]; 1.33 µM [middle of 4 runs] in [4]; 882 nM [middle of 4 runs] in [5]; 565 nM [middle of 4 runs] in [6]. The GI50 in experiment [7] is 1.23 µM [middle of 4 runs]; in [9] it was 198 nM [middle of 4 runs]; in experiment [10], 733 nM [middle of 4 runs]. In addition, the TGI in experiment [1] was 0.795 µM and 0.599 µM and 0.492 µM; in experiment [2], 4.49 µM [middle of 4 runs]; in experiment [3] it was 4.78 µM [middle of 4 runs]; in [5], 3.98 µM [middle of 4 runs]; in [7] it was 2.57 µM [middle of 4 runs]; in experiment [8], 2.45 µM and 10.7 µM and 3.7 µM. For the same compound, the TGI in experiment [10] was 4.22 µM [middle of 4 runs].
In the case of `CC(=O)c1c(C)[nH]c(-c2nc3ccc(N4CCN(C)CC4)cc3[nH]2)c1-c1ccc(N(C)C)cc1`, the concentration for 50% growth inhibition (GI50) in experiment [1] was 323 nM; in experiment [2], 2 µM; in experiment [3], 2.47 µM; in [4], 1.44 µM; in [5], 1.95 µM; in experiment [6], 2.33 µM. Further, the GI50 is 1190 nM in experiment [7], 0.56 µM in [8], 2.15 µM in [9] and 2.11 µM in [10]. The concentration for total growth inhibition (TGI) in [1] was 1.98 µM; in experiment [2] it was 21.4 µM; in experiment [3], 18.7 µM; in experiment [4] it was 16.7 µM; in experiment [5] it was 32.9 µM; in [6], > 84.1 µM. Also, the TGI in [7] is 4.59 µM; in [8], 28.4 µM; in experiment [9], 25.5 µM; in experiment [10] it was > 65.5 µM.
`N=c1ccn(O)cc1/C=C1/C(=O)Nc2ccccc21`: the GI50 in experiment [1] was > 100000 nM; in experiment [2], > 100 µM; in experiment [3] it was > 100 µM; in experiment [4], > 100 µM; in experiment [5], > 100 µM; in [6], > 100 µM. For the same compound, the GI50 in experiment [7] was > 100000 nM; in experiment [8], > 100 µM; in experiment [9] it was > 100 µM; in [10], > 100 µM. Moreover, the concentration for total growth inhibition (TGI) in [1], in experiment [2], in experiment [3], in experiment [4], in experiment [5] and in experiment [6] was > 100 µM throughout. Also, the TGI in experiment [7], in [8], in experiment [9] and in experiment [10] was > 100 µM in each case.
Consider `CC(C)=CCC[C@](C)(O)[C@H]1CC[C@]2(C)[C@@H]1CC[C@@H]1[C@@]3(C)CC/C(=N/O)C(C)(C)[C@@H]3CC[C@]12C`, for which the GI50 was 51200 nM in experiment [1]; 8.68 µM in experiment [2]; 26.5 µM in [3]; 14.3 µM in [4]; 9.75 µM in [5]; 12 µM in experiment [6]. The GI50 in experiment [7] is 19400 nM; in [8] it was 11.1 µM; in experiment [9], 6.98 µM; in [10], 12.8 µM. Besides, the TGI in experiment [1] was > 100 µM; in [2], 41.7 µM; in experiment [3], > 100 µM; in experiment [4], 69.3 µM; in experiment [5], 47.5 µM; in experiment [6], 86.2 µM. Moreover, the total growth inhibition concentration (TGI) in experiment [7] was > 100 µM; in experiment [8], 40.9 µM; in experiment [9] it was > 100 µM; in [10], 49.4 µM.
Turning to `O=C(Cc1ccc(F)c(F)c1)Nc1cc(C2(C(F)(F)F)CC2)nn1Cc1ccccc1`, the GI50 in [1] was 548 nM; in experiment [2] it was 3.61 µM; in experiment [3], 4.81 µM; in experiment [4], 4.52 µM; in experiment [5], 4.85 µM; in experiment [6] it was 5.06 µM. Also, the GI50 in experiment [7] is 2770 nM; in experiment [8], 4.55 µM; in experiment [9], 3.91 µM; in experiment [10], 4.61 µM. Besides, the TGI in experiment [1] is 4.35 µM; in [2], 10.9 µM; in experiment [3], > 15 µM; in experiment [4], > 15 µM; in experiment [5], > 15 µM; in experiment [6], > 15 µM. Also, the total growth inhibition concentration (TGI) in experiment [7] was 5.4 µM; in [8] it was > 15 µM; in experiment [9] it was > 15 µM; in experiment [10], > 15 µM.
Consider `c1ccc(CN2COc3c(ccc4c3OCN(Cc3ccccc3)C4)C2)cc1`, for which the GI50 in experiment [1] is 1190 nM; in experiment [2], 3.68 µM; in experiment [3], 1.26 µM; in experiment [4] it was 0.809 µM; in experiment [5] it was 0.479 µM; in experiment [6], 0.391 µM. In addition, the GI50 is 501 nM in experiment [7], 0.545 µM in experiment [8], 0.494 µM in [9] and 0.382 µM in [10]. Moreover, the TGI in experiment [1] was > 30.3 µM; in experiment [2], > 100 µM; in experiment [3], > 100 µM; in [4], > 100 µM; in experiment [5] it was 5.65 µM; in experiment [6], > 100 µM. Besides, the concentration for total growth inhibition (TGI) in experiment [7] is 2.04 µM; in [8], > 100 µM; in experiment [9] it was > 100 µM; in [10], > 100 µM.
`CCOC(=O)N1CCC(=O)C(CNC23CC4CC(CC(C4)C2)C3)C1` (stereo unspecified): the TGI is > 100 µM in experiment [1]; > 100 µM in experiment [2]; 32.1 µM in experiment [3]; 29.4 µM in [4]; > 100 µM in experiment [5]; 44.5 µM in experiment [6]. Also, the TGI in experiment [7] was > 100 µM; in [8] it was > 100 µM; in experiment [9], 39.5 µM; in experiment [10], > 100 µM.
As for `Cc1ccc(NC(=O)CC2Sc3ccccc3NC2=O)c(C)c1` (stereo unspecified), the total growth inhibition concentration (TGI) in [1] is 30.1 µM; in experiment [2] it was 33.7 µM; in experiment [3], 75.9 µM; in [4], 26.5 µM; in experiment [5], 33.5 µM; in experiment [6], 37.4 µM. The TGI in [7] was found to be 30.9 µM; in [8], 34 µM; in [9], 56 µM; in [10] it was 33.1 µM.
As to `CC(C)O/N=C/c1cc(NC(=S)OC(C)C)ccc1Cl`, the TGI was > 76.5 µM in [1]; > 100 µM in experiment [2]; > 91.8 µM in [3]; > 65.6 µM in [4]; > 51.2 µM in [5]; > 90.3 µM in [6]. For the same compound, the TGI is > 73.4 µM in experiment [7], > 70.6 µM in experiment [8], > 72.6 µM in [9] and > 70.2 µM in experiment [10].

The GI50 is the concentration giving 50% growth inhibition. Usually TGI stands for the concentration at which net growth stops. A low value points to greater sensitivity of the cells.

These data come from PubChem BioAssay (NCI).
